Laboratory results reported in paper PMC9343874, “Comparative Pharmacokinetics of Cinobufacini Capsule and Injection by UPLC-MS/MS” (Frontiers in Pharmacology, 2022).
Like-named read-outs stand apart in the source and are kept apart here.

How the values were obtained:
[1] = Stability of analytes in rat plasma QC samples under storage conditions; format: physicochemical; details: n = 6; for Stability during 24 h at 4°C, RE: post-treatment storage in autosampler; for −80°C for 30 days, RE / Three freeze–thaw cycles, RE: rat plasma; for −80°C for 30 days, RE: long-term; for Three freeze–thaw cycles, RE: −80°C to room temperature
Description: The stability of QC samples in six replicates at three concentrations (low, medium, and high levels) was analyzed under different storage conditions: the post-treatment stability was analyzed after storage in an autosampler (4°C) for 24 h. Freeze–thaw stability was investigated after three freeze–thaw cycles (−80°C to room temperature as one cycle). Long-term stability was assessed by analyzing QC samples kept at −80°C for 30 days. The concentrations of the analytes in the plasma samples and the QC samples were calculated by the calibration standard curve prepared each day. The stabilities of analytes were acceptable when the accuracy (RE, %) and precision (RSD, %) of all QC samples in all storage conditions were within ±15% compared to nominal concentrations.

[2] = parameters: method as in Huang et al., 2015; details: after administration of Shexiang Baoxin pill; ref Huang et al., 2015; cited from earlier work
[3] = Pharmacokinetic study in rats after oral administration of cinobufacini capsule (UPLC-MS/MS of plasma); format: in vivo, rat; details: for detection in rat plasma: cinobufacini capsule groups
Description: (§1) Male Sprague–Dawley rats (weighing 200–220 g) of SPF grade were offered by Sippr/BK laboratory Animal, Corp., Ltd. (Shanghai, China) and fed in the Laboratory Animal Center of the Shanghai University of Traditional Chinese Medicine. All the rats were kept under environmentally controlled conditions with constant temperature (22–24°C) and humidity (60–65%). The animal experiment program in the present research was approved by the Animal Committee of the Shanghai University of Traditional Chinese Medicine (PZSHUTCM210618012).
(§2) An Agilent 1290 liquid chromatographic system includes a G4220A quaternary pump, a G1326C column incubator, a G4226A automatic sampler, and a G1330B degasser. The column temperature was set to 35°C. A measure of 5 µL of samples were separated in an Agilent SB-C18 column (2.1 mm ×50 mm, 1.8 μm) and eluted at 0.3 ml/min, followed by gradient elution with water (0.1% V/V formic acid) (A) and acetonitrile (B) (0–1 min, 20%–20% B; 1–3.5 min, 20%–80% B; 4–4.1 min, 80%-20% B; 4.1–6 min, 20% B). The total run time was 6 minutes.
(§3) An Agilent 1290 Infinity series UPLC system was combined with an Agilent 6460 series triple quadrupole mass spectrometer (Agilent Technologies, Santa Clara, CA, United States) to quantify all 13 analytes in an ESI-positive ionization mode. Quantitative analysis was performed in an MRM mode. The mass spectrum conditions were as follows: capillary voltage, 4000V; drying gas (N2), gas flow rate: 10 L/min; sprayer, 30 psi; gas temperature 350°C; The delta EMV (+) 200 V; collision gas (N2); dwell time, 25 ms. Agilent’s MassHunter Workstation software was used for data collection, peak area calculation, and quantitative analysis.
(§4) A measure of 50 µL of the plasma sample was mixed with 10 µL of the internal standard solution (345 ng/ml) in a 1.5-ml centrifuge tube and vortexed for 5 min. The samples were extracted by 500 µL of ethyl acetate for 5 min and centrifuged at 4°C for 10 min (18000 rpm). All the supernatants were collected into another 1.5-ml centrifuge tube, dried under a gentle stream of nitrogen at 37°C, and then added with 50 µL of 80% methanol for resolution. The resolution samples were centrifuged at 4°C for 10 min (18000 rpm), and 5 µL supernatant was extracted and injected for analysis.
(§5) Twenty-four male Sprague–Dawley rats (weigh 200–220 g) were divided into four groups with six rats in each group randomly, including three capsule groups at three different doses and one injection group. In the instructions for cinobufacini capsule and injection, the clinical dosage for adults is 2 g per 70 kg orally and 20 ml per 70 kg intravenously, converting to rat doses of 180 mg/kg and 1.8 ml/kg, respectively.
(§6) In the pre-experiments, we compared cinobufacini capsule of 180 mg/kg (one-time clinical dose) and 900 mg/kg (five times of clinical dose) and Cinobufacini injection of 1.8 ml/kg, but concentrations of some compounds in plasma were too low and difficult to be quantified. […] The experimental rats were led to fast the night and were free to get access to water for 12 h before the pharmacokinetic study. After administration, blood samples (approximately 150 μL) of rats were collected via retro-orbital sinus into heparinized centrifuge tubes at 0.05, 0.083, 0.25, 0.5, 0.75, 1, 2, 4, 6, 8, and 10 h. After centrifugation at 5,000 rpm for 10 min, the plasma was transferred to 1.5-ml polypropylene tubes and stored at −80°C until UPLC-MS/MS analysis.
(§7) GraphPad Prism software (version 8.0.2) was used to draw the mean plasma concentration–time curves of all analytes. The pharmacokinetic parameters were calculated by DAS 3.2.8 software. Meanwhile, the pharmacokinetic data on rats were presented as mean ± standard deviation (SD). Differences of pharmacokinetic parameters between groups were analyzed by the t-test using SPSS software (version 26.0). Differences were considered significant statistically when the p-values were <0.05 and very significant statistically when the p-values were <0.01.

[4] = Pharmacokinetic study in rats after intravenous administration of cinobufacini injection (UPLC-MS/MS of plasma); format: in vivo, rat; details: cinobufacini injection group, intravenous
Description: as §1, §2, §3, §4, §5, §6, §7

[5] = parameters: method as in Wang et al., 2014; details: administration dose 1.11 mg/kg; ref Wang et al., 2014; cited from earlier work
[6] = high QC level (249.58–250.28 ng/ml)
[7] = medium QC level (49.92–50.06 ng/ml)

| SMILES | Stability during 24 h at 4°C, RE [1, 6] [%] | Stability during 24 h at 4°C, RE ([1]; low QC level (4.99–5.00 ng/ml)) [%] | Stability during 24 h at 4°C, RE [1, 7] [%] | −80°C for 30 days, RE [1, 6] [%] | −80°C for 30 days, RE ([1]; low QC level (4.99–5.00 ng/ml)) [%] | −80°C for 30 days, RE [1, 7] [%] | Three freeze–thaw cycles, RE [1, 6] [%] | Three freeze–thaw cycles, RE ([1]; low QC level (4.99–5.00 ng/ml)) [%] | Three freeze–thaw cycles, RE [1, 7] [%] | concentration in plasma [2] | detection in rat plasma [3] | concentration in plasma ([3]; present study) | detection in rat plasma [4] | detection in plasma [2] | Cmax [5] [ng/mL] |
| --- | --- | --- | --- | --- | --- | --- | --- | --- | --- | --- | --- | --- | --- | --- | --- |
| CC(=O)O[C@H]1C[C@]2(O)[C@@H]3CC[C@@H]4C[C@@H](O)CC[C@]4(C)[C@H]3CC[C@]2(C)[C@H]1c1ccc(=O)oc1 [BL, bufotalin] | 5.7 | 11.4 | 5.0 | 6.0 | 2.3 | 2.1 | 7.1 | 3.4 | 3.1 | lower than 4.4 ng/ml | could not be detected | too low to calculate the pharmacokinetics parameters accurately | could not be detected |  |  |
| CC(=O)O[C@H]1[C@H]2O[C@]23[C@@H]2CC[C@@H]4C[C@@H](O)CC[C@]4(C)[C@H]2CC[C@]3(C)[C@H]1c1ccc(=O)oc1 [CBG, cinobufagin] | 0.6 | 4.8 | −3.2 | 2.3 | 3.7 | −1.0 | 3.4 | 4.8 | 0.0 |  | could not be detected |  | could not be detected | not detected | 4.49 |
| CC(=O)O[C@H]1[C@H]2O[C@]23[C@@H]2CC[C@]4(O)C[C@@H](O)CC[C@]4(C)[C@H]2CC[C@]3(C)[C@H]1c1ccc(=O)oc1 [CBT, cinobufotalin] | 4.8 | 9.8 | 7.7 | −8.7 | −0.3 | 4.1 | 12.0 | 4.3 | 13.2 |  | could not be detected |  | could not be detected |  |  |
| C[C@]12CC[C@H](O)C[C@H]1CC[C@@H]1[C@@H]2CC[C@]2(C)[C@@H](c3ccc(=O)oc3)C[C@H]3O[C@]132 [RBG, resibufogenin] | −3.3 | −6.4 | 3.5 | −2.8 | −1.3 | 2.3 | −1.9 | −0.3 | 3.3 |  | could not be detected |  | could not be detected |  |  |
